Data on 25 molecules can be found in PubChem BioAssay AID330 (DTP/NCI, 2004).

This assay has as its system P388 leukemia ip, CD2F1 mice, survival T/C. As to the kind of experiment: NCI In Vivo Anticancer Drug Screen. Data for tumor model P388 Leukemia (intraperitoneal) in CD2F1 (CDF1) mice. As to conditions: endpoint: median survival time, higher = longer survival. Put shortly:
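Mice carrying the transplanted tumor received test compound or vehicle. Survival was recorded in each group, and the value is the treated-group measurement divided by that of the vehicle-treated control group.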

Where [1] appears, read: dose: 100.0 mg/kg/injection, schedule: Q04DX003 (ip), vehicle: Klucel (hydroxypropylcellulose) (HPC).
[2] abbreviates: dose: 200.0 mg/kg/injection, schedule: Q04DX003 (ip), vehicle: Klucel (hydroxypropylcellulose) (HPC).
Setting [3] is: dose: 400.0 mg/kg/injection, schedule: Q04DX003 (ip), vehicle: Klucel (hydroxypropylcellulose) (HPC).
The mark [4] stands for this setting: dose: 60.0 mg/kg/injection, schedule: Q01DX005 (ip), vehicle: saline with Tween-80.
Setting [5] is: dose: 120.0 mg/kg/injection, schedule: Q01DX005 (ip), vehicle: saline with Tween-80.
Setting [6] is: dose: 12.5 mg/kg/injection, schedule: Q01DX009 (ip), vehicle: saline with Tween-80.
Where [7] appears, read: dose: 25.0 mg/kg/injection, schedule: Q01DX009 (ip), vehicle: saline with Tween-80.
The mark [8] stands for this setting: dose: 50.0 mg/kg/injection, schedule: Q01DX009 (ip), vehicle: saline with Tween-80.
Setting [9] is: dose: 100.0 mg/kg/injection, schedule: Q01DX009 (ip), vehicle: saline with Tween-80.
[10] abbreviates: dose: 200.0 mg/kg/injection, schedule: Q01DX009 (ip), vehicle: saline with Tween-80.
[11] abbreviates: dose: 50.0 mg/kg/injection, schedule: Q01DX005 (ip), vehicle: saline with Tween-80.

SMILES strings stand for the structures. “And” between values parts separate entries of the source, which are not always exact repeats. Identical values can stand only once. Inconclusive results and toxic doses are left out.

For `COC1=C(OC)C(=O)C(SCCCCCCC2CCCCC2)=C(Cl)C1=O`, the T/C runs as follows: (dose: 0.2 mg/kg/injection, schedule: Q01DX009 (ip), vehicle: saline) 95 % of control; (dose: 0.4 mg/kg/injection, schedule: Q01DX009 (ip), vehicle: saline) 101 % of control; (dose: 0.8 mg/kg/injection, schedule: Q01DX009 (ip), vehicle: saline) 101 % of control; (dose: 1.6 mg/kg/injection, schedule: Q01DX009 (ip), vehicle: saline) 102 % of control; (dose: 3.13 mg/kg/injection, schedule: Q01DX009 (ip), vehicle: saline) 105 % of control; (dose: 6.25 mg/kg/injection, schedule: Q01DX009 (ip), vehicle: saline) 106 % of control.

For `O=C(Nc1ccc(Cl)c(Cl)c1)Nc1ccc(Oc2ccc(Cl)cc2Cl)cc1S(=O)(=O)O`, the T/C was 91 % of control under setting [1], 100 % of control under setting [2] and 95 % of control under setting [3].

On to `O=c1cc(-c2ccccc2)oc2c(O)c(O)cc(O)c12`, for which the T/C was 105 % of control (dose: 50.0 mg/kg/injection, schedule: Q04DX003 (ip), vehicle: Klucel (hydroxypropylcellulose) (HPC)); 104 % of control under setting [1]; 100 % of control under setting [2]; 92 % of control under setting [3].

With `COc1nc2c(=O)[nH]cnc2n1C1OC(CO)C(O)C1O` (centres undefined), the T/C reads like this: (dose: 60.0 mg/kg/injection, schedule: Q01DX005 (ip), vehicle: saline) 104 % of control; (dose: 120.0 mg/kg/injection, schedule: Q01DX005 (ip), vehicle: saline) 97 % of control; (dose: 240.0 mg/kg/injection, schedule: Q01DX005 (ip), vehicle: saline) 98 % of control.

Take `C/C=C1\CN2CCC34c5ccccc5N5C(C6C7CC8N(CCC89c8ccccc8N(C(C)=O)C69)C/C7=C\C)OCC(C1CC23)C54` (centres undefined): the T/C was 100 % of control (dose: 12.06 mg/kg/injection, schedule: Q01DX009 (ip), vehicle: saline with Tween-80); 107 % of control (dose: 24.12 mg/kg/injection, schedule: Q01DX009 (ip), vehicle: saline with Tween-80); 109 % of control (dose: 48.25 mg/kg/injection, schedule: Q01DX009 (ip), vehicle: saline with Tween-80).

As to `Cc1nn(C(C)C(=O)N(C)C)c(Br)c1Br` (centres undefined), the T/C runs as follows: (dose: 50.0 mg/kg/injection, schedule: Q01DX009 (ip), vehicle: Klucel (hydroxypropylcellulose) (HPC)) 99 % of control; (dose: 100.0 mg/kg/injection, schedule: Q01DX009 (ip), vehicle: Klucel (hydroxypropylcellulose) (HPC)) 108 % of control; (dose: 200.0 mg/kg/injection, schedule: Q01DX009 (ip), vehicle: Klucel (hydroxypropylcellulose) (HPC)) 111 % of control.

On to `O=C1OCC2CC3c4ccccc4C12c1ccccc13` (centres undefined), for which the T/C is 100 % of control (dose: 25.0 mg/kg/injection, schedule: Q01DX001 (ip), vehicle: Klucel (hydroxypropylcellulose) (HPC)); 94 % of control (dose: 50.0 mg/kg/injection, schedule: Q01DX001 (ip), vehicle: Klucel (hydroxypropylcellulose) (HPC)); 100 % of control (dose: 100.0 mg/kg/injection, schedule: Q01DX001 (ip), vehicle: Klucel (hydroxypropylcellulose) (HPC)); 103 % of control (dose: 200.0 mg/kg/injection, schedule: Q01DX001 (ip), vehicle: Klucel (hydroxypropylcellulose) (HPC)).

Regarding `Nc1ccc2c(SCCCCCCCCSc3c4ccccc4nc4cc(N)ccc34)c3ccccc3nc2c1`, the T/C is, setting by setting: under setting [4], 106 % of control; under setting [5], 106 % of control.

Regarding `CCC[CH2][Sn]([CH2]CCC)([CH2]CCC)[C]1(CCCC2CO2)SCCCS1` (centres undefined), the T/C is 86 % of control under setting [6], 94 % of control under setting [7] and 108 % of control under setting [8].

As for `C[n+]1c2ccccc2c(N)c2ccccc21`, the T/C (dose: 30.0 mg/kg/injection, schedule: Q04DX002 (ip), vehicle: saline with Tween-80) was 117 % of control.

For the molecule `O=C(O)CCCOC(C[N+](=O)[O-])C(Cl)(Cl)Cl` (centres undefined), the T/C was 95 % of control under setting [8], 100 % of control under setting [9] and 96 % of control under setting [10].

`Cc1ccc(S(=O)(=O)NN=c2cccccc2)cc1`: the T/C is, setting by setting: (dose: 100.0 mg/kg/injection, schedule: Q01DX001 (ip), vehicle: DMSO) 101 % of control; (dose: 200.0 mg/kg/injection, schedule: Q01DX001 (ip), vehicle: DMSO) 97 % of control.

Turning to `CCOC(=O)CC(=O)c1sc(Nc2ccccc2)c(C#N)c1N`, the T/C is 98 % of control under setting [11]; 90 % of control (dose: 100.0 mg/kg/injection, schedule: Q01DX005 (ip), vehicle: saline with Tween-80); 90 % of control (dose: 200.0 mg/kg/injection, schedule: Q01DX005 (ip), vehicle: saline with Tween-80).

For the molecule `C=C(C)CCP(=S)(OCC)OCC`, the T/C by setting is: under setting [4], 102 % of control; under setting [5], 101 % of control; (dose: 240.0 mg/kg/injection, schedule: Q01DX005 (ip), vehicle: saline with Tween-80) 100 % of control.

As to `NC(Cc1ccccc1)C(=O)Nc1ccncc1` (centres undefined), the T/C runs as follows: (dose: 12.5 mg/kg/injection, schedule: Q01DX001 (ip), vehicle: saline) 105 % of control; (dose: 25.0 mg/kg/injection, schedule: Q01DX001 (ip), vehicle: saline) 106 % of control; (dose: 50.0 mg/kg/injection, schedule: Q01DX001 (ip), vehicle: saline) 103 % of control.

For the molecule `c1ccc(SNSc2ccccc2)cc1`, the T/C under setting [1] is 103 % of control, the T/C under setting [2] is 101 % of control and the T/C under setting [3] is 106 % of control.

For the molecule `COC1=CC(=O)C(C(c2ccc(OC)cc2)N2CCOCC2)=CC1=O` (centres undefined), the T/C is, setting by setting: (dose: 12.5 mg/kg/injection, schedule: Q01DX005 (ip), vehicle: saline with Tween-80) 109 % of control; (dose: 25.0 mg/kg/injection, schedule: Q01DX005 (ip), vehicle: saline with Tween-80) 109 % of control; under setting [11], 101 % of control and 109 % of control.

Regarding `Cn1nnc2c1C(=O)c1ccccc1C2=O`, the T/C runs as follows: under setting [8], 106 % of control; under setting [9], 111 % of control; under setting [10], 110 % of control.

Regarding `C=C(C)C1CCC=CC(=O)C1` (centres undefined), the T/C reads like this: under setting [1], 107 % of control; under setting [2], 116 % of control.

For the molecule `OC1(c2ccccc2)c2ccc(Br)cc2-c2cc(Br)ccc21`, the T/C under setting [9] is 101 % of control; the T/C under setting [10] was 104 % of control; the T/C (dose: 400.0 mg/kg/injection, schedule: Q01DX009 (ip), vehicle: saline with Tween-80) was 100 % of control.

Take `CC(C)C(Nc1ncnc2c1CCc1ccccc1-2)C(=O)O` (centres undefined): the T/C is 95 % of control (dose: 50.0 mg/kg/injection, schedule: Q04DX002 (ip), vehicle: saline with Tween-80) and 100 % of control (dose: 100.0 mg/kg/injection, schedule: Q04DX002 (ip), vehicle: saline with Tween-80).

As for `O=C1c2ccccc2C(=C(c2ccccc2)c2ccccc2)c2ccccc21`, the T/C by setting is: (dose: 50.0 mg/kg/injection, schedule: Q01DX005 (ip), vehicle: Klucel (hydroxypropylcellulose) (HPC)) 89 % of control; (dose: 100.0 mg/kg/injection, schedule: Q01DX005 (ip), vehicle: Klucel (hydroxypropylcellulose) (HPC)) 88 % of control; (dose: 200.0 mg/kg/injection, schedule: Q01DX005 (ip), vehicle: Klucel (hydroxypropylcellulose) (HPC)) 86 % of control.

As to `O=C1CCSC(=S)N1c1ccc(F)c(F)c1`, the T/C is 107 % of control (dose: 50.0 mg/kg/injection, schedule: Q01DX009 (ip), vehicle: suspension in saline); 92 % of control (dose: 100.0 mg/kg/injection, schedule: Q01DX009 (ip), vehicle: suspension in saline); 92 % of control (dose: 200.0 mg/kg/injection, schedule: Q01DX009 (ip), vehicle: suspension in saline).

Turning to `O=C(CCCc1ccc(N(CCCl)CCCl)cc1)OCCOc1ccccc1`, the T/C runs as follows: under setting [6], 155 % of control; under setting [7], 223 % of control; under setting [8], 174 % of control and 200 % of control.

For `CCOC(=O)/C(C#N)=C(\CCC(C(=O)O)N1C(=O)c2ccccc2C1=O)OC` (centres undefined), the T/C runs as follows: (dose: 100.0 mg/kg/injection, schedule: Q04DX002 (ip), vehicle: Klucel (hydroxypropylcellulose) (HPC)) 102 % of control; (dose: 200.0 mg/kg/injection, schedule: Q04DX002 (ip), vehicle: Klucel (hydroxypropylcellulose) (HPC)) 102 % of control; (dose: 400.0 mg/kg/injection, schedule: Q04DX002 (ip), vehicle: Klucel (hydroxypropylcellulose) (HPC)) 110 % of control.
